PubChem BioAssay (NCI)
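Interpolation was linear, between the two tested concentrations surrounding the appropriate level; five concentrations were tested over 48 hours in 96-well plates. TGI denotes the concentration required for complete inhibition of growth.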

Tests used:
Experiment in all cases: inhibition of tumour cell growth, NCI panel, 48 h
TK-10 renal = system: TK-10 renal
SF-539 CNS = system: SF-539 CNS
KM12 colon = system: KM12 colon
MOLT-4 leukemia = system: MOLT-4 leukemia
MCF7 breast = system: MCF7 breast
NCI-H23 lung = system: NCI-H23 lung
PC-3 prostate = system: PC-3 prostate
ACHN renal = system: ACHN renal
786-0 renal = system: 786-0 renal
M14 melanoma = system: M14 melanoma
HOP-62 NSCLC = system: HOP-62 NSCLC
OVCAR-5 ovarian = system: OVCAR-5 ovarian
OVCAR-3 ovarian = system: OVCAR-3 ovarian
SF-295 CNS = system: SF-295 CNS
CCRF-CEM leukemia = system: CCRF-CEM leukemia
HCT-116 colon = system: HCT-116 colon
T-47D breast = system: T-47D breast
EKVX NSCLC = system: EKVX NSCLC
MDA-N = system: MDA-N
SK-OV-3 ovarian = system: SK-OV-3 ovarian
SK-MEL-28 melanoma = system: SK-MEL-28 melanoma
U251 CNS = system: U251 CNS
A549 NSCLC = system: A549 NSCLC
HCT-15 colon = system: HCT-15 colon
NCI-H460 lung = system: NCI-H460 lung
SNB-75 CNS = system: SNB-75 CNS
SK-MEL-5 melanoma = system: SK-MEL-5 melanoma
SK-MEL-2 melanoma = system: SK-MEL-2 melanoma
SR leukemia = system: SR leukemia
OVCAR-8 ovarian = system: OVCAR-8 ovarian
RPMI-8226 leukemia = system: RPMI-8226 leukemia
K-562 leukemia = system: K-562 leukemia
COLO 205 colon = system: COLO 205 colon
MDA-MB-435 = system: MDA-MB-435
HS 578T breast = system: HS 578T breast
MALME-3M melanoma = system: MALME-3M melanoma
NCI/ADR-RES ovarian = system: NCI/ADR-RES ovarian
UACC-257 melanoma = system: UACC-257 melanoma
NCI-H226 lung = system: NCI-H226 lung
UACC-62 melanoma = system: UACC-62 melanoma
HCC-2998 colon = system: HCC-2998 colon
DU-145 prostate = system: DU-145 prostate
HOP-92 NSCLC = system: HOP-92 NSCLC
OVCAR-4 ovarian = system: OVCAR-4 ovarian
HL-60(TB) leukemia = system: HL-60(TB) leukemia
SF-268 CNS = system: SF-268 CNS
SW-620 colon = system: SW-620 colon
HT29 colon = system: HT29 colon
SN12C renal = system: SN12C renal
IGROV1 ovarian = system: IGROV1 ovarian
UO-31 renal = system: UO-31 renal
LOX IMVI melanoma = system: LOX IMVI melanoma
MDA-MB-231 breast = system: MDA-MB-231 breast
SNB-19 CNS = system: SNB-19 CNS
A498 renal = system: A498 renal
BT-549 breast = system: BT-549 breast
CAKI-1 renal = system: CAKI-1 renal
NCI-H522 lung = system: NCI-H522 lung
RXF 393 renal = system: RXF 393 renal

Compound: O=C1NC(Nc2ccccc2)=NC(C(F)(F)F)(C(F)(F)F)N1
- TGI (TK-10 renal): > 100 µM
- TGI (SF-539 CNS): > 100 µM
- TGI (KM12 colon): > 100 µM
- TGI (MOLT-4 leukemia): > 100 µM
- TGI (MCF7 breast): > 100 µM
- TGI (NCI-H23 lung): > 100 µM
- TGI (PC-3 prostate): > 100 µM
- TGI (ACHN renal): > 100 µM
- TGI (786-0 renal): > 100 µM
- TGI (M14 melanoma): 83.5 µM
- TGI (HOP-62 NSCLC): > 100 µM
- TGI (OVCAR-5 ovarian): > 100 µM
- TGI (OVCAR-3 ovarian): > 100 µM
- TGI (SF-295 CNS): > 100 µM
- TGI (CCRF-CEM leukemia): > 100 µM
- TGI (HCT-116 colon): > 100 µM
- TGI (T-47D breast): > 100 µM
- TGI (EKVX NSCLC): > 100 µM
- TGI (MDA-N): > 100 µM
- TGI (SK-OV-3 ovarian): > 100 µM
- TGI (SK-MEL-28 melanoma): > 100 µM
- TGI (U251 CNS): 87.9 µM
- TGI (A549 NSCLC): > 100 µM
- TGI (HCT-15 colon): > 100 µM
- TGI (NCI-H460 lung): > 100 µM
- TGI (SNB-75 CNS): 87.6 µM
- TGI (SK-MEL-5 melanoma): 79.6 µM
- TGI (SK-MEL-2 melanoma): 75.4 µM
- TGI (SR leukemia): > 100 µM
- TGI (OVCAR-8 ovarian): > 100 µM
- TGI (RPMI-8226 leukemia): > 100 µM
- TGI (K-562 leukemia): > 100 µM
- TGI (COLO 205 colon): > 100 µM
- TGI (MDA-MB-435): > 100 µM
- TGI (HS 578T breast): > 100 µM
- TGI (MALME-3M melanoma): > 100 µM
- TGI (NCI/ADR-RES ovarian): > 100 µM
- TGI (UACC-257 melanoma): > 100 µM
- TGI (NCI-H226 lung): > 100 µM
- TGI (UACC-62 melanoma): > 100 µM
- TGI (HCC-2998 colon): > 100 µM
- TGI (DU-145 prostate): > 100 µM
- TGI (HOP-92 NSCLC): 53.4 µM
- TGI (OVCAR-4 ovarian): > 100 µM
- TGI (HL-60(TB) leukemia): > 100 µM
- TGI (SF-268 CNS): > 100 µM
- TGI (SW-620 colon): > 100 µM
- TGI (HT29 colon): > 100 µM
- TGI (SN12C renal): > 100 µM
- TGI (IGROV1 ovarian): > 100 µM
- TGI (UO-31 renal): > 100 µM
- TGI (LOX IMVI melanoma): > 100 µM
- TGI (MDA-MB-231 breast): > 100 µM

Compound: C[C@H](NC(=O)C(Cc1ccccc1)(Cc1ccc(O)cn1)NC(=O)c1ccccc1)c1ccccc1 (stereo partly specified)
- TGI (TK-10 renal): 94.8 µM
- TGI (SF-539 CNS): 34.2 µM
- TGI (KM12 colon): 49.4 µM
- TGI (MOLT-4 leukemia): 84.9 µM
- TGI (MCF7 breast): 75.5 µM
- TGI (NCI-H23 lung): 50.5 µM
- TGI (PC-3 prostate): 28.7 µM
- TGI (ACHN renal): 43.2 µM
- TGI (SNB-19 CNS): 39.4 µM
- TGI (786-0 renal): 31.3 µM
- TGI (M14 melanoma): 29.4 µM
- TGI (HOP-62 NSCLC): 33.8 µM
- TGI (OVCAR-5 ovarian): 37.4 µM
- TGI (OVCAR-3 ovarian): 28.7 µM
- TGI (SF-295 CNS): 29 µM
- TGI (CCRF-CEM leukemia): > 100 µM
- TGI (HCT-116 colon): 28.7 µM
- TGI (T-47D breast): 69.1 µM
- TGI (EKVX NSCLC): 34.2 µM
- TGI (MDA-N): 30.7 µM
- TGI (A498 renal): 33.5 µM
- TGI (BT-549 breast): 36.9 µM
- TGI (SK-MEL-28 melanoma): 38.3 µM
- TGI (U251 CNS): 28.6 µM
- TGI (A549 NSCLC): 31.6 µM
- TGI (CAKI-1 renal): 90.5 µM
- TGI (HCT-15 colon): 38.3 µM
- TGI (SK-MEL-5 melanoma): 33.7 µM
- TGI (SK-MEL-2 melanoma): 27.6 µM
- TGI (OVCAR-8 ovarian): 42.1 µM
- TGI (RPMI-8226 leukemia): > 100 µM
- TGI (K-562 leukemia): > 100 µM
- TGI (COLO 205 colon): 35.1 µM
- TGI (MDA-MB-435): 37.3 µM
- TGI (HS 578T breast): 41.1 µM
- TGI (MALME-3M melanoma): 37.6 µM
- TGI (NCI/ADR-RES ovarian): 44.6 µM
- TGI (UACC-257 melanoma): 34.5 µM
- TGI (NCI-H522 lung): 35.4 µM
- TGI (NCI-H226 lung): 36.5 µM
- TGI (UACC-62 melanoma): 26.5 µM
- TGI (HCC-2998 colon): 30.8 µM
- TGI (DU-145 prostate): 35.5 µM
- TGI (HOP-92 NSCLC): 38.8 µM
- TGI (OVCAR-4 ovarian): 50.4 µM
- TGI (HL-60(TB) leukemia): 64.6 µM
- TGI (SF-268 CNS): 39.1 µM
- TGI (SW-620 colon): 59.3 µM
- TGI (RXF 393 renal): 28.2 µM
- TGI (HT29 colon): 33.4 µM
- TGI (SN12C renal): 31.5 µM
- TGI (IGROV1 ovarian): 37 µM
- TGI (UO-31 renal): 29.1 µM
- TGI (LOX IMVI melanoma): 29.7 µM
- TGI (MDA-MB-231 breast): 29.4 µM

Compound: CCC1(c2ccccc2)Sc2ccccc2-n2cccc2C1=O (stereo unspecified)
- TGI (TK-10 renal): > 10 µM
- TGI (KM12 colon): > 10 µM
- TGI (MOLT-4 leukemia): > 10 µM
- TGI (MCF7 breast): > 10 µM
- TGI (NCI-H23 lung): > 10 µM
- TGI (PC-3 prostate): > 10 µM
- TGI (786-0 renal): > 10 µM
- TGI (M14 melanoma): > 10 µM
- TGI (HOP-62 NSCLC): > 10 µM
- TGI (SF-295 CNS): > 10 µM
- TGI (CCRF-CEM leukemia): > 10 µM
- TGI (T-47D breast): > 10 µM
- TGI (EKVX NSCLC): > 10 µM
- TGI (MDA-N): > 10 µM
- TGI (SK-OV-3 ovarian): > 10 µM
- TGI (SK-MEL-28 melanoma): > 10 µM
- TGI (A549 NSCLC): > 10 µM
- TGI (CAKI-1 renal): > 10 µM
- TGI (HCT-15 colon): > 10 µM
- TGI (SNB-75 CNS): > 10 µM
- TGI (SK-MEL-5 melanoma): > 10 µM
- TGI (SR leukemia): > 10 µM
- TGI (OVCAR-8 ovarian): > 10 µM
- TGI (RPMI-8226 leukemia): > 10 µM
- TGI (K-562 leukemia): > 10 µM
- TGI (COLO 205 colon): > 10 µM
- TGI (MALME-3M melanoma): > 10 µM
- TGI (UACC-257 melanoma): > 10 µM
- TGI (UACC-62 melanoma): > 10 µM
- TGI (HCC-2998 colon): > 10 µM
- TGI (DU-145 prostate): > 10 µM
- TGI (HL-60(TB) leukemia): > 10 µM
- TGI (SW-620 colon): > 10 µM
- TGI (RXF 393 renal): > 10 µM
- TGI (HT29 colon): > 10 µM
- TGI (SN12C renal): > 10 µM
- TGI (IGROV1 ovarian): > 10 µM
- TGI (MDA-MB-231 breast): > 10 µM
